# Columns and labels:
# [1] = system: P. falciparum gametocytes; experiment: microsphiltration (spleen-mimetic microfilters) retention / stiffening of mature gametocytes, dose-response; format: cell-based, Plasmodium falciparum; conditions: for activity by readout (readout 1 male and female gametocytes staining vs readout 2 specific female gametocytes staining): dose-response curves, data not shown; for IC50: Plasmodium falciparum, mature gametocytes, retention in microsphiltration, read-out: stiffening effect IC50
# Source text: FIG. 1. Screening progression cascade. ReFrame library (12,805 compounds), Kinase Inhibitors Box (350 compounds) and Pathogen Box (400 compounds) were screened with “microsphiltration” against P. falciparum gametocytes. Hits from primary screening were further selected by dose-response analysis (DRA). Confirmed 82 hits were divided in 7 groups, based on their activity and molecular target (data not shown). Hits repartition is shown in parenthesis, along with the name of one representative hit for each group. A score was assigned to each DRA confirmed hit, based on route of administration, safety in human clinical trials, pharmacokinetic and affordability for developing countries, leading to final selection of 3 hits for further in vitro and in vivo confirmation experiments.
# FIG. 2. Representative single 384-wells plate scatterplots of primary screening. Each well of a screening plate is loaded with pre-spotted compounds while two columns are left for controls. They are represented as follows: empty circles for non-selected compounds and black circles for hits (352 wells), black squares for negative control (DMSO 0.05%, 16 wells), black squares for main positive control (NITD609 0.5 μM, 8 wells), light black empty squares for retention positive control (Calyculin A 75 nM, 6 wells), black squares for killing control (Gentian Violet 50 μM, 2 wells). For each well, killing and retention values are calculated and distributed in a “xy” graph. Two graphs are made for each plate: one using male and female gametocytes imaging (“readout 1”, left panel) and one using specific female gametocytes imaging (“readout 2”, right panel). For each graph, a linear regression (solid line) is tracked with 95% confidence interval (dashed lines). The compounds beyond the upper confidence interval in both readouts are identified as hits. A) Plate number 15 of ReFRAME library: 8 hits with readout 1, 11 hits with readout 2, 4 hits (shared between the two readouts) finally identified. B) Plate number 9 of ReFRAME library: 7 hits with readout 1, 11 hits with readout 2, 5 hits finally individuated, including NITD609 (highlighted with an arrow). In few cases, compounds with only killing effect were added to hitlist.
# FIG. 4. Examples of dose-response curves (DRCs) of confirmed hits. Every hit from primary screening has been re-tested in duplicate (ReFrame library) and in triplicate (Kinase Inhibitors and Pathogen Box libraries) for dose-response, starting from 5 (10 μM for ReFrame hits) to 5 nM. For each of them, a DRC for killing and retention was tracked and IC50 was calculated (one for readout 1, male and female gametocytes staining, one for readout 2, specific female gametocytes staining). Error bars denote the standard deviation. The first curve is referred to killing effect and the second curve to retention effect normalized on DMSO negative control. Chemical structure of the compound is represented for each DRC. Hits and readouts have been selected among the ones with lowest variability, with the addition of TD-6450 and L-THP due to their high priority. […] Readout 2 has been selected for all of them except APPCL. […] Readout 2 used for all of them. […] Readout 2 used for all of them except TD-6450.
# [2] = system: P. falciparum gametocytes; experiment: killing of mature gametocytes in the microsphiltration screen, dose-response; format: cell-based; conditions: Plasmodium falciparum, read-out: killing effect IC50
# Source text: FIG. 1. Screening progression cascade. ReFrame library (12,805 compounds), Kinase Inhibitors Box (350 compounds) and Pathogen Box (400 compounds) were screened with “microsphiltration” against P. falciparum gametocytes. Hits from primary screening were further selected by dose-response analysis (DRA). Confirmed 82 hits were divided in 7 groups, based on their activity and molecular target (data not shown). Hits repartition is shown in parenthesis, along with the name of one representative hit for each group. […]
# FIG. 2. […] For each well, killing and retention values are calculated and distributed in a “xy” graph. Two graphs are made for each plate: one using male and female gametocytes imaging (“readout 1”, left panel) and one using specific female gametocytes imaging (“readout 2”, right panel). […] The compounds beyond the upper confidence interval in both readouts are identified as hits. A) Plate number 15 of ReFRAME library: 8 hits with readout 1, 11 hits with readout 2, 4 hits (shared between the two readouts) finally identified. B) Plate number 9 of ReFRAME library: 7 hits with readout 1, 11 hits with readout 2, 5 hits finally individuated, including NITD609 (highlighted with an arrow). […]
# FIG. 4. […] For each of them, a DRC for killing and retention was tracked and IC50 was calculated (one for readout 1, male and female gametocytes staining, one for readout 2, specific female gametocytes staining). […]
Structure (SMILES),IC50 [1] [nM],activity by readout (readout 1 male and female gametocytes staining vs readout 2 specific female gametocytes staining) [1],IC50 [2] [nM]
CC(C)(CN)c1nc(-c2ccc(Cl)c(O)c2)c(-c2ccnc(N)n2)[nH]1 [MMV030734],,specifically actives on readout 2,
O=C(NCCN1CCCC1)c1cc(NCCCCN2CCC(F)(F)CC2)nc2ccc(Cl)cc12 [MMV667494],,specifically actives on readout 2,
"C[C@H]1Cc2c([nH]c3cc(Cl)c(F)cc23)[C@@]2(N1)C(=O)Nc1ccc(Cl)cc12 [NITD609, (1R,3S)-5′,7-Dichloro-6-fluoro-3-methyl-spiro[2,3,4,9-tetrahydropyrido[3,4-b]indole-1,3′-indoline]-2′-one]",50,,100

# Now from value to compound, other results behind:
IC50 [1] [nM],Structure (SMILES),activity by readout (readout 1 male and female gametocytes staining vs readout 2 specific female gametocytes staining) [1],IC50 [2] [nM]
5,"COc1cc2c(cc1OC)[C@@H]1Cc3ccc(OC)c(OC)c3CN1CC2 [L-THP, (13aS)-2,3,9,10-tetramethoxy-6,8,13,13a-tetrahydro-5H-isoquinolino[2,1-b]isoquinoline]",,
600,"CNC(=O)N1C[C@@H](C)N(c2ccc(C(=O)Nc3ccc(-c4ccc(-c5c[nH]c([C@@H]6CCCN6C(=O)[C@@H](NC(=O)OC)C(C)C)n5)cc4)c(OC(F)(F)F)c3)cn2)C[C@@H]1C [TD-6450, carbamic acid, N-[(1S)-1-[[(2S)-2-[5-[4′-[[[6-[(2R,5S)-2,5-dimethyl-4-[(methylamino)carbonyl]-1-piperazinyl]-3-pyridinyl]carbonyl]amino]-2′-(trifluoromethoxy) [1,1′-biphenyl]-4-yl]-1H-imidazol-2-yl]-1-pyrrolidinyl]carbonyl]-2-methylpropyl]-, methyl ester]",,

# Source: patent publication US20240024299A1, “USE OF DRUGS THAT STIFFEN MATURE GAMETOCYTES FOR BLOCKING TRANSMISSION OF PLASMODIUM PARASITES” (INSERM (INSTITUT NATIONAL DE LA SANTÉ ET DE LA RECHERCHE …, priority 2020, published 2024)
